Results reported in ChEMBL document CHEMBL1124694, “C2,N6-disubstituted adenosines: synthesis and structure-activity relationships” (J Med Chem, 1989).

Key:
[1] = molecular target: T1, Adenosine A2 receptor (Rattus norvegicus, UniProt P29276+P30543)
[2] = molecular target: T2, Adenosine receptor A1 (Rattus norvegicus, UniProt P25099)
T2 sequence (P25099 whole entry): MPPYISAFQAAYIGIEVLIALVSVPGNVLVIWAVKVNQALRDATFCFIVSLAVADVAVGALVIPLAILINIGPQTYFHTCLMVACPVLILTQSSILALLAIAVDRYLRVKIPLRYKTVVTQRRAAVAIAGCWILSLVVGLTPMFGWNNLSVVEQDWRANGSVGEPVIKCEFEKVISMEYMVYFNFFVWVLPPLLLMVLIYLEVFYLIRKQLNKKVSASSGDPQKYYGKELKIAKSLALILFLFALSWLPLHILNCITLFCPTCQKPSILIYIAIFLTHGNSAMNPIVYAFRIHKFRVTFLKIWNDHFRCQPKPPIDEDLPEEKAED

[3] = molecular target: T1, Adenosine A2 receptor; assay: Inhibition of [3H]NECA binding to Adenosine A2 receptor of rat striatal membranes; assay type: cell membranes, Membrane

Ki [1] | Ki [2] | Ki [3] | Structure (SMILES)
1.53 µM | 0.0192 µM |  | CC(Cc1ccccc1)Nc1nc(N)nc2c1ncn2C1O[C@H](CO)[C@@H](O)[C@H]1O (stereo not given in full)
 | 2.6 µM | 1.23 µM | Nc1nc(S(=O)(=O)c2ccccc2)nc2c1ncn2C1O[C@H](CO)[C@@H](O)[C@H]1O (stereo not given in full)
0.65 µM | 2.7 µM |  | OC[C@H]1OC(n2cnc3c(NCC(c4ccccc4)c4ccccc4)nc(Nc4ccccc4)nc32)[C@H](O)[C@@H]1O (stereo not given in full)
0.35 µM | 0.53 µM |  | OC[C@H]1OC(n2cnc3c(NCc4cccc5ccccc45)nc(NCc4ccccc4)nc32)[C@H](O)[C@@H]1O (stereo not given in full)
0.27 µM | 2 µM |  | O=S(=O)(c1ccccc1)c1nc(NCc2cccc3ccccc23)c2ncn(C3O[C@H](CO)[C@@H](O)[C@H]3O)c2n1 (stereo not given in full)
0.47 µM | 9 µM |  | COc1cc(OC)cc(C(CNc2nc(Nc3ccccc3)nc3c2ncn3C2O[C@H](CO)[C@@H](O)[C@H]2O)c2ccccc2)c1 (stereo not given in full)
2.3 µM | 0.096 µM |  | O=S(=O)(c1ccccc1)c1nc(NC2CCCC2)c2ncn(C3O[C@H](CO)[C@@H](O)[C@H]3O)c2n1 (stereo not given in full)
2.1 µM | 8.9 µM |  | OC[C@H]1OC(n2cnc3c(NCC4c5ccccc5-c5ccccc54)nc(Nc4ccccc4)nc32)[C@H](O)[C@@H]1O (stereo not given in full)
 | 1.32 µM | 0.6 µM | COc1ccc(-c2nc(N)c3ncn(C4O[C@H](CO)[C@@H](O)[C@H]4O)c3n2)cc1 (stereo not given in full)
6.7 µM | 0.16 µM |  | OC[C@H]1OC(n2cnc3c(NC4CCCCC4)nc(Sc4ccccc4)nc32)[C@H](O)[C@@H]1O (stereo not given in full)
5.1 µM | 0.42 µM |  | O=S(=O)(c1ccccc1)c1nc(NC2CCCCC2)c2ncn(C3O[C@H](CO)[C@@H](O)[C@H]3O)c2n1 (stereo not given in full)
1.7 µM | 0.05 µM |  | CC(O)CNc1nc(Nc2ccccc2)nc2c1ncn2C1O[C@H](CO)[C@@H](O)[C@H]1O (stereo not given in full)
4 µM | 0.037 µM |  | OC[C@H]1OC(n2cnc3c(NC4CCCC4)nc(Sc4ccccc4)nc32)[C@H](O)[C@@H]1O (stereo not given in full)
7.1 µM | 1.63 µM |  | OC[C@H]1OC(n2cnc3c(NCc4ccccc4)nc(Nc4ccccc4)nc32)[C@H](O)[C@@H]1O (stereo not given in full)
0.61 µM | 1.47 µM |  | OC[C@H]1OC(n2cnc3c(NCc4cccc5ccccc45)nc(Sc4ccccc4)nc32)[C@H](O)[C@@H]1O (stereo not given in full)
0.135 µM | 0.061 µM |  | Nc1nc(NCC(c2ccccc2)c2ccccc2)c2ncn(C3O[C@H](CO)[C@@H](O)[C@H]3O)c2n1 (stereo not given in full)
0.144 µM | 0.0124 µM |  | OC[C@H]1OC(n2cnc3c(NC4CCCC4)nc(Nc4ccccc4)nc32)[C@H](O)[C@@H]1O (stereo not given in full)
1 µM | 0.21 µM |  | CC(Cc1ccccc1)Nc1nc(Sc2ccccc2)nc2c1ncn2C1O[C@H](CO)[C@@H](O)[C@H]1O (stereo not given in full)

Ki [1] | Ki [2] | Ki [3] | Structure (SMILES)
58 µM | 18.4 µM |  | OC[C@H]1OC(n2cnc3c(NN4CCCC4)nc(Nc4ccccc4)nc32)[C@H](O)[C@@H]1O (stereo not given in full)
6.1 µM | 0.0083 µM |  | Nc1nc(NC2CCCC2)c2ncn(C3O[C@H](CO)[C@@H](O)[C@H]3O)c2n1 (stereo not given in full)
0.96 µM | 0.068 µM |  | OC[C@H]1OC(n2cnc3c(NC4CC4)nc(Nc4ccccc4)nc32)[C@H](O)[C@@H]1O (stereo not given in full)
0.8 µM | 0.84 µM |  | OC[C@H]1OC(n2cnc3c(NCC(c4ccccc4)c4ccccc4)nc(Sc4ccccc4)nc32)[C@H](O)[C@@H]1O (stereo not given in full)
0.0149 µM | 0.0181 µM |  | OC[C@H]1OC(n2cnc3c(NCc4cccc5ccccc45)nc(F)nc32)[C@H](O)[C@@H]1O (stereo not given in full)
0.472 µM | 0.0077 µM |  | OC[C@H]1OC(n2cnc3c(NC4CC5CCC4C5)nc(Nc4ccccc4)nc32)[C@H](O)[C@@H]1O (stereo not given in full)
0.24 µM | 0.152 µM |  | CC(Cc1ccccc1)Nc1nc(Nc2ccccc2)nc2c1ncn2C1O[C@H](CO)[C@@H](O)[C@H]1O (stereo not given in full)
9.3 µM | 0.005 µM |  | CC(O)CNc1ncnc2c1ncn2C1O[C@H](CO)[C@@H](O)[C@H]1O (stereo not given in full)
 | 2.2 µM | 2 µM | Nc1nc(Sc2ccccc2)nc2c1ncn2C1O[C@H](CO)[C@@H](O)[C@H]1O (stereo not given in full)
0.022 µM | 0.0185 µM |  | Nc1nc(NCC2c3ccccc3-c3ccccc32)c2ncn(C3O[C@H](CO)[C@@H](O)[C@H]3O)c2n1 (stereo not given in full)
0.34 µM | 10.3 µM |  | COc1cc(OC)cc(C(CNc2nc(Nc3ccccc3)nc3c2ncn3C2O[C@H](CO)[C@@H](O)[C@H]2O)c2ccccc2C)c1 (stereo not given in full)
 | 0.0032 µM |  | OC[C@H]1O[C@@H](n2cnc3c(NC4CC4)ncnc32)[C@H](O)[C@@H]1O
10.3 µM | 45 µM |  | OC[C@H]1O[C@@H](n2cnc3c(NCc4cccc5ccccc45)nc(NC4CCCCC4)nc32)[C@H](O)[C@@H]1O
 |  | 0.33 µM | Nc1nc(=O)[nH]c2c1ncn2[C@@H]1O[C@H](CO)[C@@H](O)[C@H]1O [ISOGUANOSINE]
2 µM | 1.62 µM |  | OC[C@H]1OC(n2cnc3c(NCCc4ccccc4)nc(NCCc4ccccc4)nc32)[C@H](O)[C@@H]1O (stereo not given in full)
0.23 µM | 0.56 µM |  | OC[C@H]1OC(n2cnc3c(NCc4cccc5ccccc45)nc(Nc4ccccc4)nc32)[C@H](O)[C@@H]1O (stereo not given in full)
3.5 µM | 0.0193 µM |  | Nc1nc(NC2CCCCC2)c2ncn(C3O[C@H](CO)[C@@H](O)[C@H]3O)c2n1 (stereo not given in full)
0.45 µM | 0.054 µM |  | OC[C@H]1OC(n2cnc3c(NC4CCCCC4)nc(Nc4ccccc4)nc32)[C@H](O)[C@@H]1O (stereo not given in full)
